The text below walks through data of ChEMBL document CHEMBL4011656, “Discovery and Optimization of Chromeno[2,3-c]pyrrol-9(2H)-ones as Novel Selective and Orally Bioavailable Phosphodiesterase 5 Inhibitors for the Treatment of Pulmonary Arterial Hypertension” (J Med Chem, 2017).

In series [1] the target is cGMP-specific 3',5'-cyclic phosphodiesterase (Homo sapiens, UniProt O76074).
The nature of series [2]: Oral bioavailability in rat. The class given is ADME, organism-based. The conditions noted are these: in vivo.
Series [3] concerns Rattus norvegicus. The series is described as follows: Reduction in MCT-induced increase in mean pulmonary arterial pressure in Wistar rat model of monocrotaline pulmonary arterial hypertension assessed as mean pulmonary arterial pressure at 10 mg/kg, po for 3 weeks (reference value: 32.74 mmHg). The series is classed as functional.
Series [4] is filed under the species Rattus norvegicus. As to conditions: Wistar, 10 mg/kg.
A short description of series [5]: Half life in rat liver microsomes. The series is classed as ADME, microsome. For orientation: Liver microsomes are a subcellular fraction often used to study metabolism.
Series [6] is described as follows: Half life in human microsomes. The class given is ADME, microsome. The conditions noted are these: liver microsomes.
Series [7] deals with Liver. The series is described as follows: Intrinsic clearance in rat liver microsomes. The class given is ADME, microsome.
Series [8] has as its system Liver. The series is described as follows: Intrinsic clearance in human liver microsomes. The class given is ADME, microsome.
Series [9] can be described thus: Apparent clearance in rat liver microsomes. The series is classed as ADME, microsome. The conditions noted are these: read-out: CLH(app).
The nature of series [10]: Apparent clearance in human microsomes. The series is classed as ADME, microsome. The conditions noted are these: liver microsomes, read-out: CLH(app).
The nature of series [11]: Hepatic clearance in rat liver microsomes. The class given is ADME, microsome.
A short description of series [12]: Hepatic clearance in human microsomes. The series is classed as ADME, microsome. The conditions noted are these: liver microsomes.
Series [13] is described as follows: Hepatic extraction ratio in rat liver microsomes. The class given is ADME, microsome. As to conditions: read-out: ERH.
Series [14] can be described thus: Hepatic extraction ratio in human microsomes. The class given is ADME, microsome. As to conditions: liver microsomes, read-out: ERH.
The test system of series [15] is Liver. The series is described as follows: Drug metabolism in rat liver microsomes assessed as metabolic rate. The class given is ADME, microsome.
The test system of series [16] is Liver. The series is described as follows: Drug metabolism in human liver microsomes assessed as metabolic rate. The class given is ADME, microsome.
A short description of series [17]: Oral bioavailability in Sprague-Dawley rat by LC-MS/MS analysis. The series is classed as ADME, organism-based. As to conditions: in vivo.

Activity calls are given as the source filed them. The calls are words filed in the database; no cut-off is given here. A value given as a limit tells only on which side of the number the result lay.

On to `O=c1c2ccccc2oc2c(Cc3ccc(O)cc3)[nH]c(-c3ccccn3)c12`, for which inhibition in series [1] was half-maximal at 21 nM (IC50).

As for `O=c1c2ccccc2oc2c(Cc3ccc(O)cc3)[nH]c(-c3cccnc3Cl)c12`, the IC50 – broadly, the midpoint of a concentration-inhibition curve – in series [1] was over 100 nM. The same measure, in the same setting: the result for `O=c1c2ccccc2oc2c(Cc3ccc(O)cc3)[nH]c(-c3cccnc3)c12` reads 77 nM; that for `O=c1c2ccccc2oc2c(Cc3ccc(O)cc3)[nH]c(-c3ccc(Cl)cn3)c12`, 50 nM.

In [1], `O=c1c2ccccc2oc2c(Cc3ccc(C(F)(F)F)cc3)[nH]c(-c3nccs3)c12` displayed an IC50 of 30 nM. On the same count and under the same terms, the figure for `O=C(c1[nH]c(Cc2ccc(O)cc2)c2oc3ccccc3c(=O)c12)N1CCOCC1` is over 100 nM; for `CC(C)N1CCN(C(=O)c2[nH]c(Cc3ccc(O)cc3)c3oc4ccccc4c(=O)c23)CC1` it is over 100 nM; for `O=c1c2ccccc2oc2c(Cc3ccc(O)cc3)[nH]c(-c3cc(Cl)ccn3)c12` it is over 100 nM. Still for that read-out and setting: the figure for `Cc1ccc(-c2[nH]c(Cc3ccc(O)cc3)c3oc4ccccc4c(=O)c23)cc1` is over 100 nM; for `O=c1c2ccccc2oc2c(Cc3ccc(O)cc3)[nH]c(-c3cccnc3O)c12` it is over 100 nM. On to `CCCc1nn(C)c2c(=O)[nH]c(-c3cc(S(=O)(=O)N4CCN(C)CC4)ccc3OCC)nc12.O=C(O)CC(O)(CC(=O)O)C(=O)O` [SILDENAFIL CITRATE], for which the bioavailability (in general, dose-corrected exposure relative to a reference, in per cent) in series [2] was determined as 41%. Also, in the series on Rattus norvegicus [3], the Activity was 22.13 mmHg. Further, the inhibition result in the series listed under Rattus norvegicus [4] is “Active”. Regarding `Cc1nnc(-c2[nH]c(Cc3ccc(O)cc3)c3oc4ccccc4c(=O)c23)o1`, the IC50 in series [1] was over 100 nM. Same read-out and setting: the result for `COc1ncccc1-c1[nH]c(Cc2ccc(O)cc2)c2oc3ccccc3c(=O)c12` reads over 100 nM.

As for `Cc1ncc2n1-c1ccc(Cl)cc1C(c1ccccc1F)=NC2` [MIDAZOLAM], the half-life (commonly how long it takes for the measured level to halve) in series [5] worked out at 2.4 min; in series [6] it was 2.7 min. The CLH in the series on Liver [7] was determined as 574 µL/min/mg; with Liver [8] it was 506.4 µL/min/mg. In addition, the CLint scaled in series [9] is 1040 mL/min/kg; in series [10], 488 mL/min/kg. The results for the CLhep predicted in series [11] and in [12] were 53.2 mL/min/kg and 19.2 mL/min/kg, respectively. In addition, the values for the hepatic extraction ratio in [13] and in [14] were 0.95 and 0.96, respectively. Also, the K in the series on Liver [15] is recorded as 0.2877; in the series with Liver [16] it was 0.2532. On to `O=c1c2ccccc2oc2c(Cc3ccc(O)cc3)[nH]c(-c3ccccc3F)c12`, for which the IC50 in series [1] was 16 nM. In the case of `COC(=O)c1[nH]c(Cc2ccc(O)cc2)c2oc3ccccc3c(=O)c12`, in series [1], the IC50 came to 31 nM. Same read-out and setting: the result for `O=C(c1[nH]c(Cc2ccc(O)cc2)c2oc3ccccc3c(=O)c12)N1CCN(C2CC2)CC1` reads over 100 nM; that for `O=c1c2ccccc2oc2c(Cc3ccc(O)cc3)[nH]c(-c3ccncc3)c12`, over 100 nM. Consider `CC(C)(C)Oc1ccc(Cc2[nH]c(-c3nccs3)c3c(=O)c4ccccc4oc23)cc1`, for which the IC50 in series [1] is over 100 nM. In the case of `O=c1c2ccccc2oc2c(Cc3ccc(O)cc3)[nH]c(-c3nccs3)c12`, the bioavailability in [17] is under 10%. The compound further yielded a 50% inhibitory concentration (IC50) in series [1] of 5.4 nM.

For `O=c1c2ccccc2oc2c(Cc3ccc(O)cc3)[nH]c(-c3ccncn3)c12`, the IC50 in series [1] worked out at 56 nM. Same read-out and setting: the result for `O=c1c2ccccc2oc2c(Cc3ccc(O)cc3)[nH]c(-c3ccncc3Cl)c12` reads over 100 nM.
